Assay results from patent publication US11981658B2, “Substituted aminopyridine compounds as EGFR inhibitors” (YUHAN CORPORATION, priority 2021, dated 2024).
Read-outs that look alike come from different tables or passages of the source.

How the values were obtained:
[1] = molecular target: EGFR Del19/T790M/C797S (Homo sapiens, UniProt P00533, C797S/DEL746-750/T790M); assay: Biochemical EGFR kinase inhibition assay (Lance Ultra TR-FRET), triple mutant del19/T790M/C797S
Procedure, shortened: (§1)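 In this biochemical assay, phosphorylation after a one-hour room-temperature reaction was detected with europium-labelled anti-phosphopeptide antibody at 2 nM final concentration.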

[2] = molecular target: EGFR L858R/T790M/C797S (Homo sapiens, UniProt P00533, C797S/L858R/T790M); assay: Biochemical EGFR kinase inhibition assay (Lance Ultra TR-FRET), triple mutant L858R/T790M/C797S
Chain of EGFR L858R/T790M/C797S (P00533 25-1210 T790M/C797S/L858R): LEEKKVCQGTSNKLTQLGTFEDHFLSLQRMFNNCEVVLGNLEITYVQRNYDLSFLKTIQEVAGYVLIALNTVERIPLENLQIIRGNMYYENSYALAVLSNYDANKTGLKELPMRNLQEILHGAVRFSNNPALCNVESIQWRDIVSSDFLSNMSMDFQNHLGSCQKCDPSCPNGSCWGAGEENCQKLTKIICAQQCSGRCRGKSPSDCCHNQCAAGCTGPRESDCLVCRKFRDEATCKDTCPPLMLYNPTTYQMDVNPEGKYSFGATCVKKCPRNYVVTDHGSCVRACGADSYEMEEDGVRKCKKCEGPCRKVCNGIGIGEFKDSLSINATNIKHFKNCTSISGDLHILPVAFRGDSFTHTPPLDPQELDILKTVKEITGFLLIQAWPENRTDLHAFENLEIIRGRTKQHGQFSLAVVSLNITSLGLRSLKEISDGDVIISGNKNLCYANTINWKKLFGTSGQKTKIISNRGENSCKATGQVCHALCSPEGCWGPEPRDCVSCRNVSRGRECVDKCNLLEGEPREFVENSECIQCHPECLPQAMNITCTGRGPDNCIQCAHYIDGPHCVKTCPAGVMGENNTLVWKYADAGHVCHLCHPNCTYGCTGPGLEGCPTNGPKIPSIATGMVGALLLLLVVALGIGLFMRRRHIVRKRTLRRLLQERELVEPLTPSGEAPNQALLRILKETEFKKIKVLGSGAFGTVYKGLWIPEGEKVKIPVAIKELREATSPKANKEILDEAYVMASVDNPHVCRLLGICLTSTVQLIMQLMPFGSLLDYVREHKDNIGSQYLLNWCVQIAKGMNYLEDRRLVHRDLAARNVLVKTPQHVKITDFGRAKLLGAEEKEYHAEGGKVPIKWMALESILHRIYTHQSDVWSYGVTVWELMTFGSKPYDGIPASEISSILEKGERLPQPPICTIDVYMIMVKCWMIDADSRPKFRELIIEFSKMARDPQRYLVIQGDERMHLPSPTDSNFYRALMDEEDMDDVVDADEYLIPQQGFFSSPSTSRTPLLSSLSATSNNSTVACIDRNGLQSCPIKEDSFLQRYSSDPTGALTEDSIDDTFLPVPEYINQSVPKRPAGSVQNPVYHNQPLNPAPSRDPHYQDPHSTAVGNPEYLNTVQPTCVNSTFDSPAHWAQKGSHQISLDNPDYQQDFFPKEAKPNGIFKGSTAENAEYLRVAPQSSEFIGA
Procedure, shortened: as §1

[3] = molecular target: EGFR Del19/C797S (Homo sapiens, UniProt P00533, C797S/DEL746-750); assay: Biochemical EGFR kinase inhibition assay (Lance Ultra TR-FRET), double mutant del19/C797S
Chain of EGFR Del19/C797S (P00533 with tags, fused parts or gaps DEL746-750/C797S): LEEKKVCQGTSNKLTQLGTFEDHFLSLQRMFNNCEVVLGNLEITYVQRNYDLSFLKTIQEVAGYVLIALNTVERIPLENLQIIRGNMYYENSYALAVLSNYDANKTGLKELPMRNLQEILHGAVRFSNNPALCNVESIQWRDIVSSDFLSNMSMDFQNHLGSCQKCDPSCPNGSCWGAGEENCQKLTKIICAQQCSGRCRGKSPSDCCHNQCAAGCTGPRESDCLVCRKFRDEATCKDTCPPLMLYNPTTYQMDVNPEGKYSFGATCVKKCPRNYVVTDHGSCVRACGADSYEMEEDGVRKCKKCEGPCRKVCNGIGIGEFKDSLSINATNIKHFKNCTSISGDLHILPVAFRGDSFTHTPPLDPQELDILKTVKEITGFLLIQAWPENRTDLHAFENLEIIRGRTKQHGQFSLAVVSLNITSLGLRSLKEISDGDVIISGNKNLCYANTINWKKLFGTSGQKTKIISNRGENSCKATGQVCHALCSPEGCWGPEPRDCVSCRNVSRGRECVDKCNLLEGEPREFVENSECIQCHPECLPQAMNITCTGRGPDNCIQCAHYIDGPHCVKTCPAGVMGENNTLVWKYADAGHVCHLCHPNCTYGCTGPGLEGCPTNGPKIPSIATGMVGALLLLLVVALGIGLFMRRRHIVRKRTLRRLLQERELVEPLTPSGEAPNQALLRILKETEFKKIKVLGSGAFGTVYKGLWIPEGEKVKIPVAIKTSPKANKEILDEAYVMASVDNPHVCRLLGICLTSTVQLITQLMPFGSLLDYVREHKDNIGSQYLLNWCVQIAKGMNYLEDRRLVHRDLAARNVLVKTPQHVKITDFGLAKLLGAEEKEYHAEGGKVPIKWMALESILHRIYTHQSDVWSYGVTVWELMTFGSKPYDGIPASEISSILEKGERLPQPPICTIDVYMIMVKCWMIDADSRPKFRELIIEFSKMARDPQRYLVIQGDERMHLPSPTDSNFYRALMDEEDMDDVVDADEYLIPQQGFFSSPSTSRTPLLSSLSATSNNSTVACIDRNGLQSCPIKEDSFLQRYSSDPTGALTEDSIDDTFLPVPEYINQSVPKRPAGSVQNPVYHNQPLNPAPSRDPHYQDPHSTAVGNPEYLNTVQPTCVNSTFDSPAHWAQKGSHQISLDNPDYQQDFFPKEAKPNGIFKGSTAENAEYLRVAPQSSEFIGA
Procedure, shortened: as §1

[4] = molecular target: EGFR L858R/C797S (Homo sapiens, UniProt P00533, C797S/L858R); assay: Biochemical EGFR kinase inhibition assay (Lance Ultra TR-FRET), double mutant L858R/C797S
Chain of EGFR L858R/C797S (P00533 25-1210 C797S/L858R): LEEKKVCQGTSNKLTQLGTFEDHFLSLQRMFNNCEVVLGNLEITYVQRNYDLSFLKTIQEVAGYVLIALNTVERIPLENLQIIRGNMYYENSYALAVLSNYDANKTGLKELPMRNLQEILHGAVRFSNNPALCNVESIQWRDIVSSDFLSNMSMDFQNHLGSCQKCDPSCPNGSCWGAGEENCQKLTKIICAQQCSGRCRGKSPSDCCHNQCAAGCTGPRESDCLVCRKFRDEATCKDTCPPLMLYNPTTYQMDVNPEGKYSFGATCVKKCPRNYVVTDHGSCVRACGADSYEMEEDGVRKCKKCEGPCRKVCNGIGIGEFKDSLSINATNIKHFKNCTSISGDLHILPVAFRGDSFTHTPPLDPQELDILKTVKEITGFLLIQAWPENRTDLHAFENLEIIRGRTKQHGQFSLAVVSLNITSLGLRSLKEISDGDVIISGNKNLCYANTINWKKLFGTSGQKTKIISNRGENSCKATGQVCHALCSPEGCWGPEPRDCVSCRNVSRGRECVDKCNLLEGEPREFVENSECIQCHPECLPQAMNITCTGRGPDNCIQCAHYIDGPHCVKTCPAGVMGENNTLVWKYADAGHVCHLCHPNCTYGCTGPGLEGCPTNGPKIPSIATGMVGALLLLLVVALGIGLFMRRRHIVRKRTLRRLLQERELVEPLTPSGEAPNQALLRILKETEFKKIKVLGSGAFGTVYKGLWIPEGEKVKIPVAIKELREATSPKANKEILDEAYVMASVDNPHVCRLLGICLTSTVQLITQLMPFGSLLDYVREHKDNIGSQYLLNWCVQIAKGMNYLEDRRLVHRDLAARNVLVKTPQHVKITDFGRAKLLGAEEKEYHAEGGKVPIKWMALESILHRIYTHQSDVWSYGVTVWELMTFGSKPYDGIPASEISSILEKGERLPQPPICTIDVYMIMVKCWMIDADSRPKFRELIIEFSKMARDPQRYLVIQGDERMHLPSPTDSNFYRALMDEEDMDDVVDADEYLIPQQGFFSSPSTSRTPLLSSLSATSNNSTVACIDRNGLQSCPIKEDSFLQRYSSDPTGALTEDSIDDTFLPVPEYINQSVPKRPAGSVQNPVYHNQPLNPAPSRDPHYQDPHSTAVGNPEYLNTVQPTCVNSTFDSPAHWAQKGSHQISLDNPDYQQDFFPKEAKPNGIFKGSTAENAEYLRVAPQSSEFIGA
Method: Biochemical EGFR kinase assays were conducted using Lance Ultra time-resolved fluorescence resonance energy transfer (TR-FRET) technology from Perkin-Elmer. Compounds of the invention were initially diluted to 20 mM in 100% DMSO for storage and made into kinase buffer solution to create a compound concentration ranging from 0.003 μM and 10 μM.
Each kinase reactions were incubated at room temperature for 1 hour and then stopped by the addition of 4 μL of stop solution (10 mM EDTA). The specific Europium-labeled-anti-phosphopeptide antibody (PerkinElmer, AD0069) diluted in LANCE detection buffer was then added to a final concentration of 2 nM. After 60 minutes incubation at room temperature the LANCE signal was measured on an EnVision Multilabel Reader (Perkin-Elmer). Excitation wavelength was set at 320 nm and emission monitored at 615 nm (donor) and 665 nm (acceptor). The IC50 values were determined using GraphPad prism software (GraphPad Software, Inc., San Diego, CA, USA).

[5] = molecular target: EGFR wildtype (WT) (Homo sapiens, UniProt P00533); assay: Biochemical EGFR kinase inhibition assay (Lance Ultra TR-FRET), wildtype
Procedure, shortened: as §1

[6] = ATP at Km, read-out: IC50 Del19/T790M/C797S (nM), Km ATP
[7] = IC50 Del19/T790M/C797S (nM), 100 μM ATP
[8] = ATP at Km, read-out: IC50 L858R/T790M/C797S (nM), Km ATP
[9] = IC50 L858R/T790M/C797S (nM), 100 μM ATP
[10] = ATP at Km, read-out: IC50 Del19/C797S (nM), Km ATP
[11] = IC50 Del19/C797S (nM), 100 μM ATP
[12] = ATP at Km, read-out: IC50 L858R/C797S (nM), Km ATP
[13] = IC50 L858R/C797S (nM), 100 μM ATP
[14] = ATP at Km, read-out: IC50 WT (nM), Km ATP
[15] = Km ATP, read-out: IC50 Del19/T790M/C797S (nM), Km ATP
[16] = Km ATP, read-out: IC50 L858R/T790M/C797S (nM), Km ATP
[17] = Km ATP, read-out: IC50 Del19/C797S (nM), Km ATP
[18] = Km ATP, read-out: IC50 L858R/C797S (nM), Km ATP
[19] = Km ATP, read-out: IC50 WT (nM), Km ATP
[20] = Km ATP, read-out: IC50 Del19/T790M/C797S (nM) Km ATP
[21] = Km ATP, read-out: IC50 L858R/T790M/C797S (nM) Km ATP
[22] = Km ATP, read-out: IC50 Del19/C797S (nM) Km ATP
[23] = Km ATP, read-out: IC50 L858R/C797S (nM) Km ATP
[24] = Km ATP, read-out: IC50 WT (nM) Km ATP

Chain of EGFR Del19/T790M/C797S (P00533 with tags, fused parts or gaps DEL746-750/T790M/C797S): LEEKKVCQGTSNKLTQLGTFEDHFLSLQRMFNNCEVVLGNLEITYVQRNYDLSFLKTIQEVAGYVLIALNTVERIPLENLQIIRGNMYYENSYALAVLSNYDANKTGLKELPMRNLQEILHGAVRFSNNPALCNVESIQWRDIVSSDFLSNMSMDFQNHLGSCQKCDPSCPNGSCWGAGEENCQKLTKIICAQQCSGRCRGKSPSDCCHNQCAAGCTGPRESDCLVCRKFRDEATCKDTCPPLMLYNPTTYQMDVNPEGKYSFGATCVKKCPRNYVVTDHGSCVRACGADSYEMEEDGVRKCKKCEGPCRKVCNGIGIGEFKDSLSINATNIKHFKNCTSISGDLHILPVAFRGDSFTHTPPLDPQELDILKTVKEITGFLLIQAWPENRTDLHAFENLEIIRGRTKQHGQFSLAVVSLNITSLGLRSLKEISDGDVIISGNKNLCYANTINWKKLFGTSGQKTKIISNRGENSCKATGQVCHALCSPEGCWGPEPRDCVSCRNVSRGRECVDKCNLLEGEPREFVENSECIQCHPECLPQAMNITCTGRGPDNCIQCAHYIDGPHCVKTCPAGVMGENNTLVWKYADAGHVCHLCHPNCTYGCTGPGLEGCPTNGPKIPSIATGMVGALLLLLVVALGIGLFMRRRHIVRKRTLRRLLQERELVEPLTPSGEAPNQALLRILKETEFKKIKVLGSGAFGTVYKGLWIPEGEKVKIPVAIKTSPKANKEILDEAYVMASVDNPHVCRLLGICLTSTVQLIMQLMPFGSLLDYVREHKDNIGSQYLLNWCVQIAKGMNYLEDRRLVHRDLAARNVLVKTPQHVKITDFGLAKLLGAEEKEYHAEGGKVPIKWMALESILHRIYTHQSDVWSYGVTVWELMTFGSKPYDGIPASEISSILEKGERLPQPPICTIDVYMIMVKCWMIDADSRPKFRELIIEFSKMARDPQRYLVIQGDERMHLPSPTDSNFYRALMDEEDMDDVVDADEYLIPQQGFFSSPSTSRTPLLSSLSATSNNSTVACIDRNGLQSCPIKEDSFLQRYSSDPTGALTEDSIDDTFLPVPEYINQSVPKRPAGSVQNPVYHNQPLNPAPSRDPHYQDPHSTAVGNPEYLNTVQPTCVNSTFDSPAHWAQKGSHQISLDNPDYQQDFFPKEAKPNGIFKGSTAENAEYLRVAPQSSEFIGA

Row | IC50 [1, 6] [nM] | IC50 [1, 7] [nM] | IC50 [2, 8] [nM] | IC50 [2, 9] [nM] | IC50 [3, 10] [nM] | IC50 [3, 11] [nM] | IC50 [4, 12] [nM] | IC50 [4, 13] [nM] | IC50 [5, 14] [nM] | IC50 ([5]; IC50 WT (nM), 100 μM ATP) [nM] | IC50 [1, 15] [nM] | IC50 [2, 16] [nM] | IC50 [3, 17] [nM] | IC50 [4, 18] [nM] | IC50 [5, 19] [nM] | IC50 [1, 20] [nM] | IC50 [2, 21] [nM] | IC50 [3, 22] [nM] | IC50 [4, 23] [nM] | IC50 [5, 24] [nM] | Structure (SMILES)
1 | 1.8 | 3 | 6.7 | 9.2 | 68.5 | 111 | 439 | > 10000 | 411 | > 10000 |  |  |  |  |  |  |  |  |  |  | CC1(CO)CCN(c2cc(Nc3ccnc(Nc4ccccc4S(C)(=O)=O)n3)ncc2C#Cc2cnn(C(F)F)c2)CC1 [Example 271, (1-(5-((1-(Difluoromethyl)-1H-pyrazol-4-yl)ethynyl)-2-((2-((2-(methylsulfonyl)phenyl)amino)pyrimidin-4-yl)amino)pyridin-4-yl)-4-methylpiperidin-4-yl)methanol]
2 |  | 3.7 |  | 6.8 |  | 52.2 |  | 78.6 |  | > 10000 |  |  |  |  |  |  |  |  |  |  | CN(C)CC1(O)CCN(c2cc(Nc3ccnc(-c4cnn(S(=O)(=O)C5CC5)c4)n3)ncc2C#Cc2cnn(C)c2)CC1 [Example 315, 1-(2-((2-(1-(Cyclopropylsulfonyl)-1H-pyrazol-4-yl)pyrimidin-4-yl)amino)-5-((1-methyl-1H-pyrazol-4-yl)ethynyl)pyridin-4-yl)-4-((dimethylamino)methyl)piperidin-4-ol]
3 | 2.2 |  | 1.4 |  | 68.1 |  | 110 |  | 437 |  |  |  |  |  |  |  |  |  |  |  | CC(C)Nc1cc(Nc2ccnc(-c3cnn(S(=O)(=O)C4CC4)c3)n2)ncc1C#CCN1CCCC1 [Example 203, N^2-(2-(1-(Cyclopropylsulfonyl)-1H-pyrazol-4-yl)pyrimidin-4-yl)-N^4-isopropyl-5-(3-(pyrrolidin-1-yl)prop-1-yn-1-yl)pyridine-2,4-diamine]
4 |  | 0.3 |  | 0.2 |  | 0.5 |  | 9.5 |  | 820 | 0.3 | 0.1 | 0.6 | 1.6 | 5.5 |  |  |  |  |  | CC1(CO)CCN(c2cc(Nc3ccnc(-c4cnn(S(=O)(=O)C5CC5)c4)n3)ncc2C#CC2COC2)CC1 [Example 352, (1-(2-((2-(1-(Cyclopropylsulfonyl)-1H-pyrazol-4-yl)pyrimidin-4-yl)amino)-5-(oxetan-3-ylethynyl)pyridin-4-yl)-4-methylpiperidin-4-yl)methanol]
5 |  | 1.3 |  | 2.5 |  | 4 |  | 24.4 |  | > 10000 |  |  |  |  |  |  |  |  |  |  | O=S(=O)(C1CC1)n1cc(-c2nccc(Nc3cc(N4CCC(CO)CC4)c(C#Cc4cnn(C5CC5(F)F)c4)cn3)n2)cn1 (stereo not shown) [Example 83, (1-(2-((2-(1-(Cyclopropylsulfonyl)-1H-pyrazol-4-yl)pyrimidin-4-yl)amino)-5-((1-(2,2-difluorocyclopropyl)-1H-pyrazol-4-yl)ethynyl)pyridin-4-yl)piperidin-4-yl)methanol]
6 | 0.3 | 0.4 | 0.4 | 1.5 | 5.3 | 12 | 18.5 | 140 | 23 | > 10000 |  |  |  |  |  |  |  |  |  |  | CN(C)CC1CCN(c2cc(Nc3ccnc(-c4cnn(S(=O)(=O)C5CC5)c4)n3)ncc2C#Cc2cnn(C3CC3)c2)CC1 [Example 298, N-(5-((1-Cyclopropyl-1H-pyrazol-4-yl)ethynyl)-4-(4-((dimethylamino)methyl)piperidin-1-yl)pyridin-2-yl)-2-(1-(cyclopropylsulfonyl)-1H-pyrazol-4-yl)pyrimidin-4-amine]
7 |  | 5.3 |  | 9.1 |  | 2.2 |  | 15.9 |  | 2910 |  |  |  |  |  | 4 | 2.3 | 4.3 | 7.2 | 38.2 | CC1(CO)CCN(c2cc(Nc3ccnc(-c4cnn(S(=O)(=O)C5CC5)c4)n3)ncc2C#Cc2cnn(CC3CC3)c2)CC1 [Example 48, (1-(5-((1-(Cyclopropylmethyl)-1H-pyrazol-4-yl)ethynyl)-2-((2-(1-(cyclopropylsulfonyl)-1H-pyrazol-4-yl)pyrimidin-4-yl)amino)pyridin-4-yl)-4-methylpiperidin-4-yl)methanol]
8 |  | 5.3 |  | 8.3 |  | 11.6 |  | 192 |  | > 10000 | 2.5 | 1.1 | 7.3 | 30.1 | 47.7 |  |  |  |  |  | O=S(=O)(C1CC1)N1CCC(C#Cc2cnc(Nc3ccnc(-c4cnn(S(=O)(=O)C5CC5)c4)n3)cc2N[C@H]2CC[C@@H](CO)CC2)CC1 [Example 390, ((1s,4s)-4-((2-((2-(1-(Cyclopropylsulfonyl)-1H-pyrazol-4-yl)pyrimidin-4-yl)amino)-5-((1-(cyclopropylsulfonyl)piperidin-4-yl)ethynyl)pyridin-4-yl)amino)cyclohexyl)methanol]
9 |  | 0.4 |  | 0.9 |  | 2.3 |  | 121 |  | > 10000 |  |  |  |  |  | 0.4 | 0.1 | 1.5 | 5.6 | 40.5 | CN(C)C(C)(C)CNC1CCN(c2cc(Nc3ccnc(-c4cnn(S(=O)(=O)C5CC5)c4)n3)ncc2C#Cc2cnn(C)c2)CC1 [Example 134, N^4-(1-(2-((2-(1-(Cyclopropylsulfonyl)-1H-pyrazol-4-yl)pyrimidin-4-yl)amino)-5-((1-methyl-1H-pyrazol-4-yl)ethynyl)pyridin-4-yl)piperidin-4-yl)-N^2,N^2,2-trimethylpropane-1,2-diamine]
10 |  |  |  |  |  |  |  |  |  |  |  |  |  |  |  | 1.4 | 3.8 | 76.9 | 65.6 | 304 | CN(C)Cc1ccc(CNc2cc(Nc3ccnc(-c4cnn(S(=O)(=O)C5CC5)c4)n3)ncc2C#Cc2cnn(CC(F)F)c2)cc1 [Example 52, N^2-(2-(1-(Cyclopropylsulfonyl)-1H-pyrazol-4-yl)pyrimidin-4-yl)-5-((1-(2,2-difluoroethyl)-1H-pyrazol-4-yl)ethynyl)-N^4-(4-((dimethylamino)methyl)benzyl)pyridine-2,4-diamine]
11 |  | 4.3 |  | 19.6 |  | 63.8 |  | 183 |  | > 10000 |  |  |  |  |  |  |  |  |  |  | Cn1cc(C#Cc2cnc(Nc3ccnc(-c4cnn(S(=O)(=O)C5CC5)c4)n3)cc2N2CCC(O)CC2)c(C(F)(F)F)n1 [Example 89, 1-(2-((2-(1-(Cyclopropylsulfonyl)-1H-pyrazol-4-yl)pyrimidin-4-yl)amino)-5-((1-methyl-3-(trifluoromethyl)-1H-pyrazol-4-yl)ethynyl)pyridin-4-yl)piperidin-4-ol]
12 |  | 1.6 |  | 3.9 |  | 15.6 |  | 65 |  | > 10000 |  |  |  |  |  |  |  |  |  |  | Cn1ncc(C#Cc2cnc(Nc3ccnc(-c4cnn(S(=O)(=O)C5CC5)c4)n3)cc2N[C@H]2CC[C@@H](O)CC2)c1C1CC1 [Example 88, (1s,4s)-4-((5-((5-Cyclopropyl-1-methyl-1H-pyrazol-4-yl)ethynyl)-2-((2-(1-(cyclopropylsulfonyl)-1H-pyrazol-4-yl)pyrimidin-4-yl)amino)pyridin-4-yl)amino)cyclohexan-1-ol]
13 |  | 0.2 |  | 0.3 |  | 2.4 |  | 47.7 |  | 5450 | 0.3 | 0.2 | 2 | 1.9 | 8.8 |  |  |  |  |  | CC1(O)CCN(c2cc(Nc3ccnc(-c4cnn(S(=O)(=O)C5CC5)c4)n3)ncc2C#CC2CC3CCC2O3)CC1 (stereo not shown) [Example 424, 1-(5-((7-Oxabicyclo[2.2.1]heptan-2-yl)ethynyl)-2-((2-(1-(cyclopropylsulfonyl)-1H-pyrazol-4-yl)pyrimidin-4-yl)amino)pyridin-4-yl)-4-methylpiperidin-4-o 1]
